Source: patent publication US10858366B2 (priority 2016, dated 2020)

Legend:
[1] = molecular target: truncated Influenza A/victoria/75 PA(1-209) (Influenza A virus (strain A/Victoria/3/1975 H3N2), UniProt P31343); assay: Endonuclease Inhibition Assay (PA FP Assay); format: binding; details: fluorescence polarization, fluorescein-labeled probe
Method: Endonuclease Inhibition Assay (PA FP Assay)
Compounds were dissolved and serially diluted in 100% DMSO then 0.5 μl was transferred to 384-well plates. 50 nM truncated Influenza A/victoria/75 PA(1-209) was prepared in assay buffer (20 mM Tris, pH=7.5, 10 mM MgCl2, 0.01% Tween 20, 100 mM NaCl and 1 mM DTT) and 20 ul was added to each well of assay plate with compounds, centrifuged for 1 min at 1000 rpm and incubated for 30 min at room temperature. 20 μl of 20 nM fluorescein-labeled probe [5-(4-(3-carboxy-3-oxopropanoyl)-4-(4-chlorobenzyl)piperidine-1-carbonyl)-2-(6-hydroxy-3-oxo-3H-xanthen-9-yl)benzoic acid] in assay buffer was then added, centrifuged for 1 min at 1000 rpm and incubated for 60 min at room temperature.
Fluorescence polarization was measured on Perkin Elmer Envision plate reader with excitation at 480 nm and emission at 535 nm and reported in millipolarization units (mP). IC50 values were determined relative to wells containing 125 uM of a compound known to bind to the active site of PA and uninhibited wells containing 1.25% DMSO.

[2] = molecular target: RNP_CAL (PB2, PB1, PA, NP, influenza A Luciferase reporter in 293T cells) (Influenza A virus (strain swl A/California/04/2009 H1N1), UniProt C3W5S0); assay: cell-based

SMILES	IC50 [1] [nM]	EC50 [2] [nM]
O=c1cnn2c(c1O)-c1nccn1C[C@@H]2[C@H](c1ccc(F)cc1)c1ccc(F)cc1Br [Example 39, (S)-6-((R)-(2-bromo-4-fluorophenyl)(4-fluorophenyl)methyl)-11-hydroxy-5,6-dihydro-10H-imidazo[2′,1′:3,4]pyrazino[1,2-b]pyridazin-10-one]	10	33
Cc1ccccc1[C@H](c1ccc(F)cc1)[C@H]1Cn2ccnc2-c2c(O)c(=O)cnn21 [Example 40, (S)-6-((S)-(4-fluorophenyl)(o-tolyl)methyl)-11-hydroxy-5,6-dihydro-10H-imidazo[2′,1′:3,4]pyrazino[1,2-b]pyridazin-10-one]	20	32
N#Cc1cccc([C@H](c2ccc(F)cc2)[C@H]2Cn3ccnc3-c3c(O)c(=O)cnn32)c1 [Example 43, 3-((S)-(4-fluorophenyl)((S)-11-hydroxy-10-oxo-5,6-dihydro-10H-imidazo[2′,1′:3,4]pyrazino[1,2-b]pyridazin-6-yl)methyl)benzonitrile]	20	39
N#Cc1cccc([C@H](c2cccc(F)c2)[C@H]2Cn3ccnc3-c3c(O)c(=O)cnn32)c1 [Example 46, 3-((R)-(3-fluorophenyl)((S)-11-hydroxy-10-oxo-5,6-dihydro-10H-imidazo[2′,1′:3,4]pyrazino[1,2-b]pyridazin-6-yl)methyl)benzonitrile]	50	64
O=c1ccn2c(c1O)-c1ncc(-c3cn[nH]c3)n1C[C@@H]2C(c1ccccc1)c1ccccc1 [Example 52, (S)-6-benzhydryl-11-hydroxy-3-(1H-pyrazol-4-yl)-5,6-dihydro-10H-imidazo[1,2-a]pyrido[2,1-c]pyrazin-10-one]	8	8300
O=c1ccn2c(c1O)-c1ncc(-c3ccccc3)n1C[C@@H]2C(c1ccccc1)c1ccccc1 [Example 53, (S)-6-benzhydryl-11-hydroxy-3-phenyl-5H-imidazo [1,2-a] pyrido[2,1-c]pyrazin-10(6H)-one]	60	3000
COCc1cnc2n1C[C@H](C(c1ccccc1)c1ccccc1)n1ccc(=O)c(O)c1-2 [Example 56, (S)-6-benzhydryl-11-hydroxy-3-(methoxymethyl)-5H-imidazo [1,2-a]pyrido[2,1-c]pyrazin-10(6H)-one]	100	92
O=c1ccn2c(c1O)-c1ncc(C(F)F)n1C[C@@H]2C(c1ccccc1)c1ccccc1 [Example 57, (S)-6-benzhydryl-3-(difluoromethyl)-11-hydroxy-5H-imidazo[1,2-a]pyrido[2,1-c]pyrazin-10(6H)-one]	40	180
CC1(C)N(C(c2ccccc2)c2ccccc2)n2ccc(=O)c(O)c2-c2nccn21 [Example 75, 6-benzhydryl-11-hydroxy-5,5-dimethyl-5,6-dihydro-10H-imidazo[1,2-d]pyrido[2,1-f][1,2,4]triazin-10-one]	100	300
CCC1N(C(c2ccccc2)c2ccccc2)n2ccc(=O)c(O)c2-c2nccn21 (centres unmarked) [Example 78, 6-benzhydryl-5-ethyl-11-hydroxy-5,6-dihydro-10H-imidazo[1,2-d]pyrido[2,1-f][1,2,4]triazin-10-one]	40	180
